This note sets out measurements from US4601984A, “Process to produce antibiotics X-14873 A, G and H” (Hoffmann-La Roche Inc., priority 1983, dated 1986).

In brackets after ≈: the same amount, converted by molar mass.

For data set [1], the system named is Staphylococcus aureus Smith. Put plainly: Minimum Inhibitory Concentration. The class given is cell-based.
The next data set relates to Escherichia coli 257. Put plainly: Minimum Inhibitory Concentration. The class given is cell-based.
The next data set has as its system Salmonella typhi P58A. As to the kind of experiment: Minimum Inhibitory Concentration. The class given is cell-based. Conditions: Salmonella enterica, read-out: Minimum Inhibitory Concentration.
In the next data set the test system is Klebsiella pneumoniae A. Put plainly: Minimum Inhibitory Concentration. The format is cell-based.
Another data set concerns Proteus mirabilis 190. Put plainly: Minimum Inhibitory Concentration. The class given is cell-based.
A further data set deals with Pseudomonas aeruginosa B. Put plainly: Minimum Inhibitory Concentration. The format is cell-based.
A further data set concerns Serratia marcescens SM. Put plainly: Minimum Inhibitory Concentration. The class given is cell-based.
The test system of data set [2] is Enterobacter cloacae 5699. Put plainly: Minimum Inhibitory Concentration. The class given is cell-based.
In data set [3] the test system is Trichophyton mentagrophytes. Put plainly: Minimum Inhibitory Concentration. The format is cell-based.
The subject of another data set is Microsporum audouini. Put plainly: Minimum Inhibitory Concentration. The format is cell-based.
A further data set deals with Streptococcus faecium. As to the kind of experiment: Minimum Inhibitory Concentration. The class given is cell-based. Particulars: Enterococcus faecium, ATCC8043; Streptococcus faecium ATCC 8043.
Another data set relates to Staphylococcus aureus. Put plainly: Minimum Inhibitory Concentration. The format is cell-based. Conditions: ATCC6538P; Staphylococcus aureus ATCC 6538P.
The next data set deals with Sarcina lutea. As to the kind of experiment: Minimum Inhibitory Concentration. The format is cell-based. Particulars: Micrococcus luteus, ATCC9341; Sarcina lutea ATCC 9341.
The subject of another data set is Bacillus megaterium. Put plainly: Minimum Inhibitory Concentration. Particulars: Priestia megaterium, ATCC8011; Bacillus megaterium ATCC 8011. The class given is cell-based.
The next data set has as its system Bacillus sp. E. As to the kind of experiment: Minimum Inhibitory Concentration. The format is cell-based. Particulars: ATCC27359; Bacillus sp. E ATCC 27359.
The next data set concerns Bacillus subtilis. As to the kind of experiment: Minimum Inhibitory Concentration. Particulars: NRRL558; Bacillus subtilis NRRL 558. The class given is cell-based.
The next data set concerns Bacillus sp. TA. As to the kind of experiment: Minimum Inhibitory Concentration. The class given is cell-based. Particulars: ATCC27860; Bacillus sp. TA ATCC 27860.
For a further data set, the system named is Mycobacterium phlei. Put plainly: Minimum Inhibitory Concentration. The class given is cell-based. Particulars: Mycolicibacterium phlei, ATCC355; Mycobacterium phlei ATCC 355.
The test system of the next data set is Streptomyces cellulosae. Put plainly: Minimum Inhibitory Concentration. The format is cell-based. Conditions: ATCC3313; Streptomyces cellulosae ATCC 3313.
Another data set concerns Paecilomyces varioti. As to the kind of experiment: Minimum Inhibitory Concentration. The format is cell-based. Particulars: ATCC25820; Paecilomyces varioti ATCC 25820.
In the next data set the test system is Penicillum digitatum. Put plainly: Minimum Inhibitory Concentration. The format is cell-based. Conditions: Penicillum digitatum ATCC 26821.
Another data set concerns Candida albicans. As to the kind of experiment: Minimum Inhibitory Concentration. The class given is cell-based. Conditions: NRRL477; Candida albicans NRRL 477.
For a further data set, the system named is Saccharomyces cerevisiae. As to the kind of experiment: Minimum Inhibitory Concentration. The class given is cell-based. Conditions: ATCC4226; Saccharomyces cerevisiae ATCC 4226.
In data set [4] the test system is volatile fatty acids produced in the rumen. Put plainly: Ratio of volatile fatty acids produced in the rumen (GLC). The format is in vivo, steer. Conditions: for VFA Ratio: C3/(C2 + nC4): ± one standard deviation, 3 animals.
A further data set relates to ruminants. Put plainly: Growth promotion and feed utilization in ruminants. The format is in vivo, e.g. cattle.
In another data set the test system is Treponema hyodysenteriae. As to the kind of experiment: Minimum inhibitory concentration against the agent of swine dysentery. Conditions: Brachyspira hyodysenteriae. The class given is cell-based.
For the next data set, the system named is E. tenella. Put plainly: In vitro coccidiostatic activity. The class given is cell-based. Conditions: Eimeria tenella, read-out: in vitro activity against E. tenella, active concentration.
The next data set deals with gram-positive bacteria. Put plainly: Activity against gram-positive bacteria, summary. The format is cell-based.
The nature of data set [5]: Oral toxicity (LD50) in mice, 24 hours. Conditions: mouse, in vivo.
The test system of another data set is Strain X-14873. Put plainly: Streptomycin sensitivity of the producing strain (disc). The format is cell-based, Streptomyces sp. X-14873. Conditions: Streptomyces, X14873; 10 mcg in 1/4" disc.
[6] abbreviates: Medication day 2, 30 g/ton in ration, nonmedicated 0.211 ± 0.019.
The mark [7] stands for this setting: Medication day 5, 30 g/ton in ration, nonmedicated 0.248 ± 0.058.
[8] abbreviates: Medication day 7, 30 g/ton in ration, nonmedicated 0.325 ± 0.166.
Where [9] appears, read: Medication day 9, 30 g/ton in ration, nonmedicated 0.338 ± 0.164.
Setting [10] is: Medication day 12, 30 g/ton in ration, nonmedicated 0.293 ± 0.148.
Where [11] appears, read: Pre-medication day 1 (baseline).
[12] abbreviates: Pre-medication day 3 (baseline).
The mark [13] stands for this setting: Pre-medication day 5 (baseline).
Where [14] appears, read: Pre-medication day 8 (baseline).
Setting [15] is: Pre-medication day 10 (baseline).

The LD50 is the dose at which mortality reaches 50%. Read a low LD50 as a more toxic substance. On to `CCC(C(=O)C(C)C(O)C(C)C1OC(O)(CC(=O)O)C(CC)C(O)C1C)C1OC(C)(C2(O)OC(CC)(C(O)CC)CC2C)CC1C` (stereo not drawn) [Antibiotic X-14873A], for which the MIC in data set [1] worked out at 64 µg/mL (≈ 97.1 µM); against Escherichia coli 257, 128 µg/mL (≈ 194 µM); in the data set with Salmonella typhi P58A, 128 µg/mL (≈ 194 µM); against Klebsiella pneumoniae A, 128 µg/mL (≈ 194 µM); with Proteus mirabilis 190, 128 µg/mL (≈ 194 µM); in the data set on Pseudomonas aeruginosa B, 128 µg/mL (≈ 194 µM). Also, the MIC came out at 128 µg/mL (≈ 194 µM) against Serratia marcescens SM; 128 µg/mL (≈ 194 µM) in [2]; 100 µg/mL (≈ 152 µM) in data set [3]; 100 µg/mL (≈ 152 µM) with Microsporum audouini; 0.1 µg/mL (≈ 0.152 µM) with Streptococcus faecium; 6.3 µg/mL (≈ 9.56 µM) with Staphylococcus aureus. Also, the MIC was 3 µg/mL (≈ 4.55 µM) against Sarcina lutea; 3 µg/mL (≈ 4.55 µM) against Bacillus megaterium; 0.8 µg/mL (≈ 1.21 µM) against Bacillus sp. E; 3 µg/mL (≈ 4.55 µM) against Bacillus subtilis; 3 µg/mL (≈ 4.55 µM) in the data set with Bacillus sp. TA; 3 µg/mL (≈ 4.55 µM) in the data set with Mycobacterium phlei. The MIC in the data set with Streptomyces cellulosae was 12.5 µg/mL (≈ 19 µM); in the data set on Paecilomyces varioti, 125 µg/mL (≈ 190 µM); with Penicillum digitatum, 500 µg/mL (≈ 759 µM); with Candida albicans, 62.5 µg/mL (≈ 94.9 µM); with Saccharomyces cerevisiae, 500 µg/mL (≈ 759 µM); against Treponema hyodysenteriae, 5 µg/mL (≈ 7.59 µM). In addition, the “increase over control of the volatile fatty acid ratio vs lasalocid” value in data set [4] (30 g/ton, compared with lasalocid) is “greater increase over control of the volitile fatty acid ratio than lasalocid”. The “VFA Ratio: C3/(C2 + nC4)” value in [4] (setting [6]) stood at 0.445 ± 0.075; in data set [4] (setting [7]), 0.584 ± 0.328; in data set [4] (setting [8]) it was 0.679 ± 0.448; in data set [4] (setting [9]), 0.642 ± 0.387; in data set [4] (setting [10]), 0.495 ± 0.242; in data set [4] (setting [11]), 0.213 ± 0.016. For the same compound, the “VFA Ratio: C3/(C2 + nC4)” value in [4] (setting [12]) stood at 0.235 ± 0.036; in data set [4] (setting [13]) it was 0.234 ± 0.042; in [4] (setting [14]) it was 0.245 ± 0.046; in [4] (setting [15]), 0.216 ± 0.038. Moreover, the “efficiency of feed utilization in ruminant animals” value in the data set with ruminants (administered orally) was “increases the efficiency of feed utilization”. The “activity as a growth promotant in ruminants” value in the data set with ruminants (ruminants, e.g. cattle) was “exhibit activity as a growth promotant in ruminants”. In addition, in the data set on E. tenella, the minimal effective concentration came out at 200 µg/mL. Moreover, the “effect on growth of gram-positive bacteria” value (“effect on growth” below) in the data set with gram-positive bacteria was “adversely affecting the growth of certain gram-positive bacteria”. In data set [5], this compound came in with an LD50 at 24 h of 120 mg/kg.
For `CCC(C(=O)C(C)C(O)C(C)C1OC(C)(O)C(CC)C(O)C1C)C1OC(C)(C23OC(CC)C(CC)(CC2C)O3)CC1C` (stereo not drawn) [Antibiotic X-14873G], the MIC against Streptococcus faecium was 63 µg/mL (≈ 106 µM); in the data set on Staphylococcus aureus it was above 1000 µg/mL; in the data set with Sarcina lutea it was above 1000 µg/mL; in the data set with Bacillus megaterium, above 1000 µg/mL; in the data set with Bacillus sp. E it was 8 µg/mL (≈ 13.4 µM); against Bacillus subtilis it was above 1000 µg/mL. For the same compound, the MIC with Bacillus sp. TA, against Mycobacterium phlei, with Streptomyces cellulosae, in the data set on Paecilomyces varioti, in the data set on Penicillum digitatum and against Candida albicans was above 1000 µg/mL in each case. The same compound came in with an MIC in the data set with Saccharomyces cerevisiae above 1000 µg/mL. The “effect on growth” value with gram-positive bacteria is listed as “adversely affecting the growth of certain gram-positive bacteria”. The same compound had an LD50 at 24 h in data set [5] of 4000 mg/kg.
As to `CCC(C(=O)C(C)C(O)C(C)C1OC(C)(O)C(CC)C(O)C1C)C1OC(C)(C2(O)OC(CC)(C(O)CC)CC2C)CC1C` (stereo not drawn) [Antibiotic X-14873H], the MIC was 2 µg/mL (≈ 3.25 µM) in the data set on Streptococcus faecium; 8 µg/mL (≈ 13 µM) in the data set on Staphylococcus aureus; 16 µg/mL (≈ 26 µM) against Sarcina lutea; 4 µg/mL (≈ 6.51 µM) against Bacillus megaterium; 2 µg/mL (≈ 3.25 µM) in the data set on Bacillus sp. E; 16 µg/mL (≈ 26 µM) against Bacillus subtilis. Moreover, the MIC in the data set with Bacillus sp. TA was 8 µg/mL (≈ 13 µM); against Mycobacterium phlei it was above 1000 µg/mL; in the data set on Streptomyces cellulosae, above 1000 µg/mL; in the data set with Paecilomyces varioti, above 1000 µg/mL; against Penicillum digitatum, above 1000 µg/mL; against Candida albicans it was above 1000 µg/mL. The same compound yielded an MIC with Saccharomyces cerevisiae above 1000 µg/mL. For the same compound, the “effect on growth” value in the data set with gram-positive bacteria was “adversely affecting the growth of certain gram-positive bacteria”. Also, the LD50 at 24 h in data set [5] was determined as 4000 mg/kg.
With `CC[C@@H](C(=O)[C@@H](C)[C@@H](O)[C@H](C)CCc1ccc(C)c(O)c1C(=O)O)[C@H]1O[C@](CC)([C@H]2CC[C@](O)(CC)[C@H](C)O2)C[C@@H]1C` [Lasalocid, lasalocid, reference compound], the “VFA Ratio: C3/(C2 + nC4)” value turned out to be 0.376 ± 0.109 in data set [4] (setting [6]); 0.390 ± 0.073 in data set [4] (setting [7]); 0.373 ± 0.015 in data set [4] (setting [8]); 0.381 ± 0.064 in data set [4] (setting [9]); 0.372 ± 0.056 in [4] (setting [10]); 0.229 ± 0.013 in data set [4] (setting [11]). In addition, the “VFA Ratio: C3/(C2 + nC4)” value worked out at 0.255 ± 0.051 in data set [4] (setting [12]), 0.244 ± 0.060 in data set [4] (setting [13]), 0.236 ± 0.041 in data set [4] (setting [14]) and 0.224 ± 0.011 in [4] (setting [15]).
The term zone of inhibition denotes the size of the clear area around the sample on an inoculated plate. Lower therefore signals little suppression of growth. As to `[H]/N=C(/N)N[C@H]1[C@H](O)[C@@H](O)[C@H](O[C@@H]2O[C@@H](C)[C@](O)(C=O)[C@H]2O[C@@H]2O[C@@H](CO)[C@H](O)[C@@H](O)[C@@H]2NC)[C@@H](N/C(N)=N\[H])[C@@H]1O` [Streptomycin], the zone of inhibition at 10 µg/disc in the data set with Strain X-14873 was determined as 13 mm.
